Experimental data taken from patent US20240270810A1, “PREPARATION AND APPLICATION OF POLYPEPTIDE” (GUANGDONG RAYNOVENT BIOTECH CO., LTD., priority 2021, published 2024).

Assays:
[1] = test system: mouse plasma albumin; type: in vitro ADME
Method: (§1) To study the binding of the test compounds to human/mouse plasma albumin. • 1. Blank matrix preparation: On the day of the experiment, the plasma was thawed in cold water and centrifuged at 3220 rpm for 5 min to remove all the blood clots. The pH of the resulting plasma was measured and adjusted to 7.4±0.1 with 1% of phosphoric acid or 1 N of sodium hydroxide as desired. • 2. Dilution of the test compounds: the test compounds were dissolved in dimethyl sulfoxide (DMSO) to prepare stock solutions of 10 mM and 2 mM, respectively. 2 μL of the stock solution (2 mM) was diluted with 98 μL of DMSO to obtain a working solution of 40 μM. 10 μL of the stock solution was diluted with 240 μL of DMSO to obtain a working solution of control compounds of 400 μM. A working solution of the compounds (5 μL) was mixed evenly with a blank matrix (995 μL) at a ratio of 1:200 to prepare a loading matrix. • 3. Analytical procedure • 3.1 Equal amounts of 30 μL of the loading matrix (n=2) were transferred into a sample collection plate to prepare Time 0 (T0) samples for residue determination. The samples were immediately matched with corresponding blank buffer to a final volume of 60 μL, with a volume ratio of plasma (the loading matrix) to buffer being 1:1 in each well. Then, into the T0 samples of the test compounds were respectively added 60 μL of 4% H3PO4 in H2O and 480 μL of stop solution containing internal standard. They were then stored at 2° C. to 8° C. together with other samples for further treatment. • 3.2 The remaining plasma samples were pre-incubated in a carbon dioxide incubator at 37±1° C. for 30 min. Protein-free samples (F samples) were prepared. Matrix-loaded samples (230 μL) were all transferred into polycarbonate tubes (n=2) and ultracentrifuged at 37° C. and 155,000×g (35000 rpm) for 4 h. • 3.3 To prepare T samples (test samples), an additional matrix-containing sample was transferred into a separate 96-well plate (sample incubation plate) and incubated at 37° C. for 4 h. • 3.4 At the end of centrifugation, 30 μL of protein-free samples (F samples) and 30 μL of T samples were taken from the second layer (beneath the upper layer) of the supernatant and transferred into a new sample collection plate. Each sample was mixed with corresponding blank buffer or matrix to a final volume of 60 μL, and the blank matrix:buffer volume ratio is 1:1. Into all the samples were added 60 μL of 4% H3PO4 solution in water and 480 μL of stop solution containing internal standard. The mixture was centrifuged at 4000 rpm for 20 min. 100 μL of supernatant for each sample was taken for LC-MS/MS analysis.

[2] = test system: human plasma albumin; type: in vitro ADME
Method: as §1

[3] = in vivo; set-up: species or system SD rats; conditions: rat, sc, 0.048 mg/kg; for Cmax: Sprague-Dawley
Method: The pharmacokinetic characteristics in rodent animals following subcutaneous injection of the compounds were tested using standard protocols. In the experiment, the candidate compounds were formulated into clear solution, which was administered to rats by single subcutaneous injection (SC, 0.048 mpk). The vehicle for injection was citrate buffer solution (20 mM, pH=7). The whole blood was collected and processed to get the plasma. The drug concentration was analyzed by LC-MS/MS, and the pharmacokinetic parameters were calculated using Phoenix WinNonlin software.

[4] = biological target: T1, GIPR (Homo sapiens, UniProt P48546); assay: In vitro GIPR agonistic activity test (cAMP kit); type: cell-based; conditions: CHO host cells
T1 construct: host or cells: CHO
T1 sequence (P48546 22-466): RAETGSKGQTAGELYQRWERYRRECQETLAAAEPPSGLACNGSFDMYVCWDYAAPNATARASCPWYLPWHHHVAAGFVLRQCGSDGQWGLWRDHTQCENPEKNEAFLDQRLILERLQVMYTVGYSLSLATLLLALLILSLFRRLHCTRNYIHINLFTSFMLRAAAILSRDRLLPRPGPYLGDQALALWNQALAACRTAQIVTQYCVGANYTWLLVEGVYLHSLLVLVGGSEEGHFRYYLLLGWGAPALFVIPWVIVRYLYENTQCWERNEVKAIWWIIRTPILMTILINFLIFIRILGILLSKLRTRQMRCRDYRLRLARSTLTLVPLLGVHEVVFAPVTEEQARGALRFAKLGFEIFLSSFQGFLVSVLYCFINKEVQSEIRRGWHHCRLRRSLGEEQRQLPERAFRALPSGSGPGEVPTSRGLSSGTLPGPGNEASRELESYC
Method: The cell lines were constructed by Wuxi […] (Shanghai) Co., Ltd. See details in Table 1 below. […] The test compounds were diluted at a 4-fold dilution factor in 10 points, starting from an initial concentration of 30 μM. The dilution was carried out by Bravo. • 1) 100 nL of compounds were transferred to an OptiPlate-384 plate by Echo. • 2) The OptiPlate-384 plate was centrifuged at 1000 rpm for 5 s. • 1) A GLP-1R/GIPR cell cryovial was placed in warm water at 37° C. for rapid thawing. • 2) The cell suspension was transferred into a 15 mL Transfer centrifugal tube and rinsed with 10 mL of HBSS gently. • 3) The centrifugal tube was centrifuged at 1000 rpm at room temperature for 1 min. • 4) The supernatant was discarded. • 5) The bottom cells were gently dispersed, then gently rinsed with 10 mL of HBSS, the centrifugal tube was centrifuged to settle the cells, and finally the cells were resuspended in an experimental buffer. • 6) Cell density and viability were measured by Vi-cell. • 7) The GLP-1R/GIPR cells were diluted with the experimental buffer to a concentration of 2.0*10^5/mL. • 8) […] of the diluted cell suspension was transferred into the OptiPlate-384 plate. • 9) Incubation was performed at room temperature for 30 min. • 1) 10 μL of 800 nM gradient diluted cAMP standard was added into the empty wells of the OptiPlate-384 plate. • 2) 10 μL of cAMP assay reagent was added. • 3) The OptiPlate-384 plate was covered with TopSeal-A film and incubated at room temperature for 60 min. The TopSeal-A film was removed, and readout was performed on En Vision.

Row | PPB % unbound (H/M), M [1] | PPB % unbound (H/M), H [2] | Cmax [3] | AUC(0-t) [3] | Tmax [3] | half-life [3] | EC50 ([4]; with 1% HSA) | EC50 ([4]; without 1% HSA) | Tmax ([3]; SD) | SMILES
1 | NA/NA | NA/NA | 0.028 µM | 1150 nM·h | 16 h | 21 h | 19.3 nM | 0.16 nM | – | CC[C@H](C)[C@H](NC(=O)[C@H](CC(C)C)NC(=O)[C@H](Cc1c[nH]c2ccccc12)NC(=O)[C@H](CCC(=O)O)NC(=O)[C@@H](NC(=O)[C@H](Cc1ccccc1)NC(=O)[C@H](C)NC(=O)[C@@H]1CCCCNC(=O)CN(C(=O)COCCOCCNC(=O)COCCOCCNC(=O)CC[C@H](NC(=O)CCCCCCCCCCCCCCCCCCC(=O)O)C(=O)O)CC(=O)NCCCC[C@H](NC(=O)[C@H](CCCCN)NC(=O)[C@H](CC(=O)O)NC(=O)[C@H](CC(C)C)NC(=O)C(C)(C)NC(=O)[C@@H](NC(=O)[C@H](CO)NC(=O)[C@H](Cc2ccc(O)cc2)NC(=O)[C@H](CC(=O)O)NC(=O)[C@H](CO)NC(=O)[C@@H](NC(=O)[C@H](Cc2ccccc2)NC(=O)[C@@H](NC(=O)CNC(=O)[C@H](CCC(=O)O)NC(=O)C(C)(C)NC(=O)[C@@H](N)Cc2ccc(O)cc2)[C@@H](C)O)[C@@H](C)O)[C@@H](C)CC)C(=O)N[C@@H](C)C(=O)N[C@@H](CCC(N)=O)C(=O)N1)C(C)C)C(=O)N[C@@H](C)C(=O)NCC(=O)NCC(=O)N1CCC[C@H]1C(=O)N[C@@H](CO)C(=O)N[C@@H](CO)C(=O)NCC(=O)N[C@@H](C)C(=O)N1CCC[C@H]1C(=O)N1CCC[C@H]1C(=O)N1CCC[C@H]1C(=O)N[C@@H](CO)C(N)=O [WX-005]
2 | NA/NA | NA/NA | 0.024 µM | – | – | – | – | 0.074 nM | 20 h | CC[C@H](C)[C@H](NC(=O)[C@H](CC(C)C)NC(=O)[C@H](Cc1c[nH]c2ccccc12)NC(=O)[C@H](CCC(=O)O)NC(=O)[C@@H](NC(=O)[C@H](Cc1ccccc1)NC(=O)[C@H](CCC(=O)O)NC(=O)[C@@H]1CCCCNC(=O)CN(C(=O)COCCOCCNC(=O)COCCOCCNC(=O)CC[C@H](NC(=O)CCCCCCCCCCCCCCCCCCC(=O)O)C(=O)O)CC(=O)NCCCC[C@H](NC(=O)[C@H](CCCCN)NC(=O)[C@H](CC(=O)O)NC(=O)[C@H](CC(C)C)NC(=O)C(C)(C)NC(=O)[C@@H](NC(=O)[C@H](CO)NC(=O)[C@H](Cc2ccc(O)cc2)NC(=O)[C@H](CC(=O)O)NC(=O)[C@H](CO)NC(=O)[C@@H](NC(=O)[C@H](Cc2ccccc2)NC(=O)[C@@H](NC(=O)CNC(=O)[C@H](CCC(=O)O)NC(=O)C(C)(C)NC(=O)[C@@H](N)Cc2ccc(O)cc2)[C@@H](C)O)[C@@H](C)O)[C@@H](C)CC)C(=O)N[C@@H](C)C(=O)N[C@@H](CCC(N)=O)C(=O)N1)C(C)C)C(=O)N[C@@H](C)C(=O)NCC(=O)NCC(=O)N1CCC[C@H]1C(=O)N[C@@H](CO)C(=O)N[C@@H](CO)C(=O)NCC(=O)N[C@@H](C)C(=O)N1CCC[C@H]1C(=O)N1CCC[C@H]1C(=O)N1CCC[C@H]1C(=O)N[C@@H](CO)C(N)=O [WX-009]
